From US8354417B2, “Solid forms comprising 3-(2,5-dimethyl-4-oxo-4H-quinazolin-3-yl)-piperidine-2,6-dione, compositions comprising the same, and methods of using the same” (Celgene Corporation, priority 2007, dated 2013)
Converted amounts (≈) assume the structure as drawn. “Also recorded” adds a separate entry of the source.

Experiments:
[1] = Moisture sorption/desorption by Dynamic Vapor Sorption (DVS); type: physicochemical; details: for Mass change relative to the dry mass: DVS, RH increased from 0% to 95% RH (25° C. per general method); for Weight at the end of the desorption cycle: RH decreased from 95% RH to 0% RH; for XRPD diffractogram after completion of the adsorption/desorption cycle: after full DVS cycle 0% - 95% - 0% RH; for Hygroscopicity: conclusion from moisture sorption test
Method: The moisture sorption/desorption behavior of Form A was investigated by Dynamic Vapor Sorption (DVS).
The moisture sorption/desorption behavior of Form B was investigated by Dynamic Vapor Sorption (DVS).
Hygroscopicity was determined using a Surface Measurement Systems DVS instrument. Typically, a sample size of 10-50 mg was loaded into the DVS instrument sample pan and the sample was analyzed on a DVS automated sorption analyzer at 25° C. The relative humidity (RH) was increased from 0% RH to 95% RH. The RH was then decreased in a similar manner to accomplish a full adsorption/desorption cycle.

[2] = Stability of slurry in solvents at 40° C. for four weeks; type: physicochemical
Method: The stability of Form A was further investigated by storing a slurry of Form A in each of the following solvents at 40° C. for four weeks: acetone; acetonitrile; ethanol; heptane; 2-propanol; methyl t-butyl ether; methanol; water; and ethanol/water (1/1). The Form A material was stable in acetone; acetonitrile; ethanol; heptane; 2-propanol; methyl t-butyl ether; and methanol.
The stability of Form B was further investigated by storing a slurry of Form B in the following solvents at 40° C. for four weeks: acetone; acetonitrile; ethanol; heptane; 2-propanol; methyl t-butyl ether; methanol; water; and ethanol/water (1/1). The Form B material was stable in heptane; methyl t-butyl ether; water; and ethanol/water (1/1).

[3] = Compression testing, 2,000 psi for approximately 1 minute (XRPD); type: physicochemical; details: 2,000 psi pressure
Method: The stability of Form A was further investigated using compression testing. Compression testing of Form A was carried out by applying 2,000 psi pressure to a sample of Form A for approximately 1 minute, followed by analysis for stability using X-ray powder diffraction.
The stability of Form B was further investigated using compression testing. Compression testing of Form B was carried out by applying 2,000 psi pressure to a sample of Form B for approximately 1 minute, followed by analysis for stability using X-ray powder diffraction.
(§1) X-ray powder diffraction (XRPD) analysis was conducted using a Thermo ARL X'TRA X-ray powder diffractometer using CuKα radiation at 1.54 Å. The instrument was equipped with a fine focus X-ray tube. The voltage and amperage of the X-ray generator were set at 45 kV and 40 mA, and the measuring slits were set at 0.5 mm and 0.2 mm. Diffracted radiation was measured using a Peltier-cooled Si (Li) solid-state detector. A theta-two theta continuous scan at 2.40°/min (0.5 sec/0.02° step) from 1.5°2θ to 40°2θ was used. A sintered alumina standard was used as a reference.

[4] = Slurry equilibration in solvents at 25° C. or 50° C.; type: physicochemical; details: ethyl acetate, heptane, methyl t-butyl ether, toluene
Method: Form A was prepared via crystallization of 3-(2,5-dimethyl-4-oxo-4H-quinazolin-3-yl)-piperidine-2,6-dione in several organic solvent systems. Slurry crystallizations were performed by adding an excess of solid 3-(2,5-dimethyl-4-oxo-4H-quinazolin-3-yl)-piperidine-2,6-dione to 2 ml of the desired solvent system, then agitating the resulting mixture for a minimum of 24 hours at a controlled temperature. Upon reaching equilibrium, the solids were filtered, air-dried and characterized. Form A was prepared by slurry crystallization of Form B in each of the following solvents at 25° C.: acetone; acetonitrile; n-butanol; ethanol; methanol; methyl ethyl ketone; 2-propanol; and tetrahydrofuran.
Form B was prepared via crystallization of 3-(2,5-dimethyl-4-oxo-4H-quinazolin-3-yl)-piperidine-2,6-dione in several organic and aqueous solvent systems, including dimethylsulfoxide/water. Slurry crystallizations were performed by adding an excess of solid 3-(2,5-dimethyl-4-oxo-4H-quinazolin-3-yl)-piperidine-2,6-dione to 2 ml of the desired solvent system, then agitating the resulting mixture for a minimum of 24 hours at a controlled temperature. Upon reaching equilibrium, the solids were filtered, air-dried and characterized. Form B was prepared by slurry crystallization of Form A in the following solvents at both 25° C. and 50° C.: water; and ethanol/water (1/1).

[5] = Moisture sorption/desorption by Dynamic Vapor Sorption (DVS); type: physicochemical; details: isothermic approximately 23.3° C.; for Mass increase in moisture sorption test: approximately 0% RH to approximately 50% RH (FIG. 5 / FIG. 10); for Total mass increase in moisture sorption test: approximately 0% RH to approximately 95% RH (FIG. 5 / FIG. 10)
[6] = Stability on exposure to 40° C./75% RH for four weeks (XRPD); type: physicochemical; details: 40° C./75% RH environment
Method: The stability of Form A was investigated by exposing a sample of Form A to a 40° C./75% RH environment for four weeks.
The stability of Form B was investigated by exposing a sample of Form B to a 40° C./75% RH environment for four weeks.
as §1

[7] = Approximate measured solubility in solvents at 25° C.; type: physicochemical; details: at least 24 hours; for solubility: 25 °C, thermodynamic from solid
Method: (§2) The solubility of Form A was investigated in a number of solvents at ambient conditions. Solubility measurements were obtained by adding solvent (either HPLC grade or reagent grade) to a carefully weighed (approximately 100 mg) sample of Form A. The resulting mixture was agitated for at least 24 hours at 25° C. The solubility was estimated based on the total volume of solvent required to give a complete solution. In addition, a known volume of filtrate was evaporated to dryness and the weight of the residue was measured.
as §2, with “B” for “A”, “B.” for “A.”

Cc1cccc2nc(C)n(C3CCC(=O)NC3=O)c(=O)c12 (single isomer, unassigned) [Form A, 3-(2,5-dimethyl-4-oxo-4H-quinazolin-3-yl)-piperidine-2,6-dione]
Mass change relative to the dry mass [1]: 0.7% | Weight at the end of the desorption cycle [1]: lost all of the weight it had gained; also recorded: loses approximately all of the adsorbed moisture | XRPD diffractogram after completion of the adsorption/desorption cycle [1]: substantially unchanged | Hygroscopicity [1]: substantially non-hygroscopic | Stability of slurry ([2]; acetone, acetonitrile, ethanol, heptane, 2-propanol, methyl t-butyl ether, methanol): stable | Stability of slurry ([2]; water and ethanol/water (1/1)): converted into the Form B crystal form | Physical stability upon compression by X-ray powder diffraction [3]: substantially unchanged; also recorded: physically stable | Stability when slurried ([4]; 25° C., acetone, acetonitrile, n-butanol, ethanol, methanol, methylene chloride, methyl ethyl ketone, 2-propanol, tetrahydrofuran): stable | Stability when slurried ([4]; 50° C., acetone, acetonitrile, n-butanol, ethanol, methanol, methyl ethyl ketone, 2-propanol, tetrahydrofuran): stable | Mass increase in moisture sorption test [5]: approximately 1% | Total mass increase in moisture sorption test [5]: approximately 4% | Physical stability of the solid form by X-ray powder diffraction [6]: substantially unchanged; also recorded: physically stable | melting point: 292 to 294 °C | solubility ([7]; 2-propanol, organic solvent or mixture): 210 µg/mL (≈ 736 µM) | solubility ([7]; absolute ethanol, organic solvent or mixture): 500 µg/mL (≈ 1750 µM) | solubility ([7]; acetone, organic solvent or mixture): 2070 µg/mL (≈ 7260 µM) | solubility ([7]; acetonitrile, organic solvent or mixture): 1490 µg/mL (≈ 5220 µM) | solubility ([7]; ethanol/water (1/1), aqueous with cosolvent or surfactant or cyclodextrin): 180 µg/mL (≈ 631 µM) | solubility ([7]; ethyl acetate, organic solvent or mixture): 670 µg/mL (≈ 2350 µM) | solubility ([7]; heptane, organic solvent or mixture): 430 µg/mL (≈ 1510 µM) | solubility ([7]; methanol, organic solvent or mixture): 1280 µg/mL (≈ 4490 µM) | solubility ([7]; methyl ethyl ketone, organic solvent or mixture): 1390 µg/mL (≈ 4870 µM) | solubility ([7]; methyl t-butyl ether, organic solvent or mixture): 420 µg/mL (≈ 1470 µM) | solubility ([7]; methylene chloride, organic solvent or mixture): 2120 µg/mL (≈ 7430 µM) | solubility ([7]; n-butanol, organic solvent or mixture): 230 µg/mL (≈ 806 µM) | solubility ([7]; tetrahydrofuran, organic solvent or mixture): 4570 µg/mL (≈ 16000 µM) | solubility ([7]; toluene, organic solvent or mixture): 320 µg/mL (≈ 1120 µM) | solubility ([7]; water): 170 µg/mL (≈ 596 µM)

Cc1cccc2nc(C)n(C3CCC(=O)NC3=O)c(=O)c12 (single isomer, unassigned) [Form B, 3-(2,5-dimethyl-4-oxo-4H-quinazolin-3-yl)-piperidine-2,6-dione]
Mass change relative to the dry mass [1]: 2.9% | Weight at the end of the desorption cycle [1]: lost all of the weight it had gained; also recorded: loses approximately all of the adsorbed moisture | XRPD diffractogram after completion of the adsorption/desorption cycle [1]: substantially unchanged | Hygroscopicity [1]: substantially non-hygroscopic | Stability of slurry ([2]; 2-propanol): converted to a mixture of Forms A and B | Stability of slurry ([2]; acetone, acetonitrile, ethanol and methanol): converted into the Form A crystal form | Stability of slurry ([2]; heptane, methyl t-butyl ether, water, ethanol/water (1/1)): stable | Physical stability upon compression by X-ray powder diffraction [3]: substantially unchanged; also recorded: physically stable | Stability when slurried ([4]; 25° C., methylene chloride, water, ethanol/water (1/1)): stable | Mass increase in moisture sorption test [5]: approximately 1.5% | Total mass increase in moisture sorption test [5]: approximately 3% | Physical stability of the solid form by X-ray powder diffraction [6]: substantially unchanged; also recorded: physically stable | Approximate Solubility ([7]; 2-Propanol): 350 µg/mL | Approximate Solubility ([7]; Absolute ethanol): 500 µg/mL | Approximate Solubility ([7]; Acetone): 2560 µg/mL | Approximate Solubility ([7]; Acetonitrile): 1400 µg/mL | Approximate Solubility ([7]; Ethanol/Water (1/1)): 280 µg/mL | Approximate Solubility ([7]; Ethyl acetate): 1160 µg/mL | Approximate Solubility ([7]; Heptane): 440 µg/mL | Approximate Solubility ([7]; Methanol): 1310 µg/mL | Approximate Solubility ([7]; Methyl ethyl ketone): 1570 µg/mL | Approximate Solubility ([7]; Methyl t-butyl ether): 430 µg/mL | Approximate Solubility ([7]; Methylene chloride): 1630 µg/mL | Approximate Solubility ([7]; Tetrahydrofuran): 4710 µg/mL | Approximate Solubility ([7]; Toluene): 200 µg/mL | Approximate Solubility ([7]; Water): 100 µg/mL | Approximate Solubility ([7]; n-Butanol): 340 µg/mL
